Entries after “also recorded” stand apart in the source; their conditions may differ. Like-named read-outs stand apart in the source and are kept apart here.
Tests used:
[1] = system: OVX+HFD+TAC female mice (C57BL/6N); experiment: Body weight and body composition (EchoMRI) in OVX+HFD+TAC female mice; type: in vivo, mouse; details: OVX+HFD+TAC females
Experimental: (§1) All animals were fed a high fat diet (HFD) consisting of 60% kcal derived from fat was fed to both male and female C57BL6N mice for 3 months. Mice were divided into two groups: 1) Controls with intact ovaries; 2) Ovariectomized (Ovx) mice. Mice were assigned to receive trans-aortic constriction (TAC) or sham surgery after 3 months of HFD, and further randomized to placebo vehicle and PDE9-I (PDE9 inhibitor oral gavage 20 mg/kg twice daily) (FIG. 1). Comparison of Group 1 and 2 tests the efficacy of PDE9-I to ameliorate and/or reverse HFD and pressure-overload pathophysiology independent of sex hormone status.
(§2) Body composition: total fat mass, lean mass, and water content was determined by quantitative nuclear magnetic resonance (Echo-MRI®). In brief, after 20 weeks on the HFD, total body fat and lean body mass were assessed non-invasively by EchoMRI instrument. The analyzer delivers precise body composition measurements of fat, lean, free water, and total water masses in live animals weighing up to 100 grams. Conscious mice were placed in a constraint tube that was then inserted into the EchoMRI for a period of approximately 30 s and these measurements obtained.
(§3) Female mice (C57BL/6N) were placed on a 60% fat diet starting at age 5-weeks. Two weeks later, there were randomized to receive bilateral oophorectomy or sham surgery. Cardiac imaging for ventricular function and morphometry was determined 2 months later. Between 8-11 weeks after ovariectomy, the mice underwent a second surgical procedure introducing a mild aortic constriction (TAC) in the transverse aorta to increase pressure load on the heart. The purpose of the TAC procedure was to stimulate the heart to synthesize natriuretic peptide, which is important for the generation of cyclic GMP which PDE9 regulates. Serial echocardiograms were obtained, and starting 1 week after TAC, mice were further randomized to receive vehicle control or a PDE9 inhibitor (PF-7943). Intact mouse metabolic studies, fat/lean mass determinations, and heart function were assessed. At terminal study, tissues were harvested for molecular signaling.
After 20 weeks on the HFD+ 8 wks mTAC, total body fat and lean body mass were assessed non-invasively by EchoMRI.

[2] = system: OVX+HFD+TAC female mice (C57BL/6N); experiment: Echocardiography of cardiac function and structure in OVX+HFD+TAC female mice; type: in vivo, mouse; details: OVX+HFD+TAC females, vs vehicle; for left ventricular hypertrophy (LV Mass) / ejection fraction (EF) / fractional shortening (FS): serial echo, drug started 1 week after TAC; for left ventricular hypertrophy (LV Mass): oral gavage 20 mg/kg twice daily, 20 mg/kg
Experimental: as §1
(§4) Changes in cardiac function and structure were measured using echocardiogram, histopathology and markers of cardiac stress (Nppa Gene expression by RT-qPCR). For qPCR, RNA is isolated from left ventricular myocardium (Trizol Reagent, Invitrogen), reverse transcribed to cDNA (High Capacity RNA-to-cDNA Kit, Applied Biosystems, Life Technologies), and undergoes PCR amplification using TaqMan probes for atrial natriuretic peptide (Nppa) (mouse #Mm01255747_g1, rat #Rn00664637_g1). The threshold cycle value was determined using the crossing point method, and samples normalized to the GAPDH for each run. Echocardiography was performed in conscious mice using serial M-mode transthoracic echocardiography (VisualSonics Vevo 2100, 18-38 MHz transducer; SanoSite Inc.). Images were obtained and analyzed by an individual blinded to the animal condition.
as §3

[3] = system: OVX+HFD+TAC female mice (C57BL/6N); experiment: Fasting blood markers of metabolic syndrome and liver histology in OVX+HFD+TAC female mice; type: in vivo, mouse; details: for hepatic fat accumulation (liver histology): OVX females on HFD, vs no additional therapy; for fasting blood glucose / fasting blood total cholesterol / fasting total blood triglycerides: OVX+HFD+TAC females, end of study
Experimental: as §1, §3
Multiple biomarkers of metabolic syndrome and fat accumulation in the liver were improved in OVX+HFD+TAC female mice by PDE9 inhibition (FIG. 8). Data are shown at end-of study for fasting blood glucose, cholesterol, triglycerides, and histology of the liver.

[4] = system: female mice, high fat diet induced obesity plus mild pressure stress; experiment: Cardiac disease in obese (HFD) female mice with mild pressure stress on the heart; type: in vivo, mouse; details: females; high fat diet induced obesity and metabolic syndrome + mild pressure stress on the heart
Excerpt: Our laboratory has studied the impact of PDE9 inhibition on the heart, in particular in male mice subjected to pressure overload stress to induced cardiac hypertrophy, dysfunction, and pathological fibrosis. Over the past 1.5 years, we have turned to females, and in particular added the impact of high fat diet induced obesity and metabolic syndrome. This is then combined with a mild pressure stress on the heart to stimulate production of natriuretic peptides and some hypertrophy of the heart muscle. […] However, there was minimal impact on peripheral body weight, metabolism, or fat mass in these studies.

[5] = system: OVX+HFD+TAC female mice (C57BL/6N); experiment: Whole body metabolism by indirect calorimetry (CLAMS metabolic cage) in OVX+HFD+TAC female mice; type: in vivo, mouse; details: OVX+HFD+TAC females, vs vehicle; for oxygen consumption (VO2): normalized to body mass
Experimental: as §1
(§5) Whole body metabolism: Indirect calorimetry was used to assess metabolic parameters in live animals using the OxyMAX Comprehensive Lab Animal Monitoring System (Columbus Instruments, Columbus Ohio). Basic metabolic rate (VO2 consumption), VCO2 release and energy expenditure (EE) were measured by indirect calorimetry in high-fat-fed OVX mice groups treated with (Drug) and without PDE9 inhibitor (Control). Respiratory exchange ratio (RER) was calculated from VCO2 release-to-VO2 consumption ratio (VCO2 release/VO2 consumption). CLAMS cabinet was used to measure oxygen consumption rate at 22° C. (VO2), CO2 emission, respiratory exchange ratio, heat production, food consumption (g consumed per day), and total and ambulatory activity per day.
as §3
RER is calculated from VCO2/VO2 ratio. […] Even if fat mass is assumed to contribute only 15% of total metabolic activity relative to lean mass, these differences remain significant (data not shown). […] P values are for unpaired t-tests between groups.

male HFD+TAC mice [6] = experiment: Body weight and body composition in male HFD+TAC mice; type: in vivo, mouse; details: listed as PDE9-inhibitor
Experimental: as §1, §2
In a third experiment, we exposed male mice of a similar starting age (5 weeks) to the same HFD protocol, and then same TAC protocol. […]

male HFD+TAC mice [7] = experiment: Cardiac remodeling (echocardiography, Nppa RT-qPCR) in obese male HFD+TAC mice; type: in vivo, mouse; details: vs vehicle; for natriuretic peptide (Nppa) gene expression in myocardium: RT-qPCR; for cardiac hypertrophy (LV mass): drug started 1 week after TAC
Experimental: as §1, §4
(§6) In a third experiment, we exposed male mice of a similar starting age (5 weeks) to the same HFD protocol, and then same TAC protocol. As before, mice were randomized to either vehicle control or active PDE9-inhibitor starting 1 week after the TAC procedure. FIG. 11.

male HFD+TAC mice [8] = experiment: Whole body metabolism (indirect calorimetry) in male HFD+TAC mice; type: in vivo, mouse
Experimental: as §1, §5, §6

[9] = system: C57BL6/N female mice with intact ovaries, HFD+TAC; experiment: Whole body metabolism (indirect calorimetry) in HFD+TAC female mice with intact ovaries; type: in vivo, mouse; details: females with intact ovaries, HFD + pressure overload
Experimental: as §1, §5
(§7) In a second experiment, we examined the impact of PDE9 inhibition on female mice (C57BL6/N) subjected to HFD+TAC, but without ovariectomy and thus had normal estrogen levels.

[10] = system: C57BL6/N female mice with intact ovaries, HFD+TAC; experiment: Body weight and body composition in HFD+TAC female mice with intact ovaries; type: in vivo, mouse; details: females with intact ovaries, vs vehicle
Experimental: as §1, §2, §7

[11] = system: female mice, models of heart disease; details: cited from earlier work
[12] = end of study, listed as PDE9 inhibitor

Q: For C[C@@H]1CN(Cc2ncccn2)C[C@H]1c1nc2c(cnn2C2CCOCC2)c(=O)[nH]1 [PF 04447943], which “relative weight reduction compared to OVX mice on normal diet” value [1] is on record?
A: ~30%

Q: And the “absolute lean body mass” value ([1]; EchoMRI)?
A: no change in absolute lean body mass

Q: And the percent body fat ([1]; EchoMRI)?
A: reduced percent body fat

Q: And the “percent lean body mass” value ([1]; EchoMRI)?
A: increased percent lean body mass

Q: What about the fat weight ([1]; EchoMRI, 20 weeks HFD + 8 wks mTAC) of the same compound?
A: significant decline in fat weight

Q: What about the body weight decline ([1]; PDE9 inhibitor treatment) of the same compound?
A: ~20%

Q: And the cardiac output ([2]; end of study)?
A: restoration towards normal control values

Q: And the ejection fraction ([2]; end of study)?
A: restoration towards normal control values

Q: And the “ventricular end-diastolic volume (Volume, d)” value ([2]; end of study)?
A: restoration towards normal control values

Q: And the “ventricular end-systolic volume (Volume, s)” value ([2]; end of study)?
A: restoration towards normal control values

Q: And the “early to late atrial (E/A) filling” value [2, 12]?
A: restored; also recorded: restoration towards normal control values

Q: What about the “isovolumic ventricular relaxation time (IVRT)” value [2, 12] of the same compound?
A: restored; also recorded: restoration towards normal control values

Q: What about the “left ventricular hypertrophy (LV Mass)” value [2] of the same compound?
A: reduced left ventricular hypertrophy

Q: What about the “left ventricular hypertrophy (LV Mass)” value ([2]; listed as PDE9 inhibitor) of the same compound?
A: reduced LV mass

Q: What about the “ejection fraction (EF)” value [2] of the same compound?
A: greater

Q: And the “fractional shortening (FS)” value [2]?
A: greater fractional shortening

Q: And the “ejection fraction (EF)” value ([2]; listed as PDE9 inhibitor)?
A: improved FS and EF

Q: What about the “fractional shortening (FS)” value ([2]; listed as PDE9 inhibitor) of the same compound?
A: improved FS

Q: And the “hepatic fat accumulation (liver histology)” value ([3]; listed as PDE9-I)?
A: markedly reduced

Q: And the “hepatic fat accumulation (liver histology)” value ([3]; listed as PDE9 inhibitor)?
A: marked reduction of fat accumulation in the liver

Q: And the fasting blood glucose ([3]; listed as PDE9-I)?
A: reduced

Q: And the “fasting blood total cholesterol” value ([3]; listed as PDE9-I)?
A: reduced

Q: What about the “fasting total blood triglycerides” value ([3]; listed as PDE9-I) of the same compound?
A: reduced

Q: And the fasting blood glucose ([3]; listed as PDE9 inhibitor)?
A: reduced towards normal control levels

Q: What about the “fasting blood total cholesterol” value ([3]; listed as PDE9 inhibitor) of the same compound?
A: reduced towards normal control levels

Q: What about the “fasting total blood triglycerides” value ([3]; listed as PDE9 inhibitor) of the same compound?
A: reduced towards normal control levels

Q: And the cardiac disease [4]?
A: can indeed ameliorate cardiac disease

Q: What about the “oxygen consumption (VO2)” value ([5]; listed as PDE9I) of the same compound?
A: increases total oxygen consumption normalized to body mass

Q: And the “oxygen consumption (VO2)” value ([5]; listed as PDE9 inhibitor)?
A: increases in oxygen consumption

Q: What about the “carbon dioxide generation (VCO2)” value ([5]; normalized to total body mass) of the same compound?
A: increases

Q: What about the “calculated energy expenditure (heat)” value [5] of the same compound?
A: increased

Q: And the “respiratory exchange ratio (RER)” value [5]?
A: not significantly altered

Q: And the “total body weight / body mass” value (male HFD+TAC mice [6])?
A: only borderline altered; also recorded: trend towards reduced body weight

Q: And the “total fat mass / body fat” value (male HFD+TAC mice [6])?
A: significant reduction in total fat mass; also recorded: decline in body fat

Q: And the “natriuretic peptide (Nppa) gene expression in myocardium” value (male HFD+TAC mice [7]; listed as PDE9-I)?
A: reduced

Q: What about the “natriuretic peptide (Nppa) gene expression in myocardium” value (male HFD+TAC mice [7]; listed as PDE9-inhibitor) of the same compound?
A: reduced by active therapy

Q: What about the “cardiac hypertrophy (LV mass)” value (male HFD+TAC mice [7]; listed as PDE9-inhibitor) of the same compound?
A: reduced left heart mass

Q: What about the “cardiac hypertrophy (LV mass)” value (male HFD+TAC mice [7]; listed as PDE9 inhibitor) of the same compound?
A: significantly lowers cardiac hypertrophy

Q: What about the ejection fraction (male HFD+TAC mice [7]; listed as PDE9-inhibitor) of the same compound?
A: increases in both fractional shortening and ejection fraction

Q: And the fractional shortening (male HFD+TAC mice [7]; listed as PDE9-inhibitor)?
A: increases in both fractional shortening and ejection fraction

Q: What about the ejection fraction (male HFD+TAC mice [7]; listed as PDE9 inhibitor) of the same compound?
A: improves cardiac function

Q: And the fractional shortening (male HFD+TAC mice [7]; listed as PDE9 inhibitor)?
A: improves cardiac function

Q: And the CO2 generation (male HFD+TAC mice [8])?
A: did not display consistent changes

Q: And the RER (male HFD+TAC mice [8])?
A: did not display consistent changes

Q: And the “energy expenditure (heat generation)” value (male HFD+TAC mice [8]; listed as PDE9-inhibitor)?
A: did not demonstrate increases; also recorded: did not display consistent changes

Q: And the “oxygen consumption (metabolic rate)” value (male HFD+TAC mice [8]; listed as PDE9-inhibitor)?
A: did not demonstrate increases; also recorded: did not display consistent changes

Q: What about the calculated energy expenditure [9] of the same compound?
A: do not show any changes

Q: What about the CO2 production ([9]; listed as PDE9-I) of the same compound?
A: no difference

Q: And the overall oxygen consumption ([9]; listed as PDE9-I)?
A: no difference

Q: And the respiratory exchange ratio ([9]; listed as PDE9-I)?
A: no difference

Q: And the CO2 production ([9]; listed as PDE9i)?
A: do not show any changes

Q: What about the overall oxygen consumption ([9]; listed as PDE9i) of the same compound?
A: do not show any changes

Q: What about the respiratory exchange ratio ([9]; listed as PDE9i) of the same compound?
A: do not show any changes

Q: And the fat mass ([10]; listed as PDE0-I)?
A: no significant change

Q: What about the lean mass ([10]; listed as PDE0-I) of the same compound?
A: no significant change

Q: What about the percent fat mass ([10]; listed as PDE0-I) of the same compound?
A: no significant change

Q: And the percent lean mass ([10]; listed as PDE0-I)?
A: no significant change

Q: And the total body weight ([10]; listed as PDE0-I)?
A: no significant change

Q: And the fat mass ([10]; listed as PDE9 inhibitor)?
A: did not have any alteration

Q: What about the lean mass ([10]; listed as PDE9 inhibitor) of the same compound?
A: did not have any alteration

Q: What about the percent fat mass ([10]; listed as PDE9 inhibitor) of the same compound?
A: did not have any alteration

Q: What about the percent lean mass ([10]; listed as PDE9 inhibitor) of the same compound?
A: did not have any alteration

Q: And the total body weight ([10]; listed as PDE9 inhibitor)?
A: did not have any alteration

Q: With CCCc1nn(C)c2c(=O)[nH]c(-c3cc(S(=O)(=O)N4CCN(C)CC4)ccc3OCC)nc12 [sildenafil] as the compound, how does the “treatment of heart disease” value ([11]; female mice with ovaries, several models of heart disease) read?
A: successfully treated

Q: What about the “treatment of heart disease” value ([11]; female mice, ovaries first removed) of the same compound?
A: totally ineffective

Q: What about the “treatment of heart disease” value ([11]; female mice, ovaries removed, exogenous estrogen replacement) of the same compound?
A: rescued
